# Measured values from US6767897B2, “Therapeutic uses of tri-, tetra-, penta-, and polypeptides” (Innapharma, Inc., priority 1994, dated 2004).
# Residues, ends and D or L forms follow the SMILES beside them.
# Experiments:
# [1] = rat, in vivo, sc
# [2] = system: animal models for depression; settings: in vivo; cited from earlier work
Compound,levels found in the hippocampus and the amygdala [1],activity in animal models for depression [2]
4-F-Phe-cis- or trans-4-OH-Pro-Arg-Gly-Trp-NH2 [SEQ ID NO:43],found at detectable levels and substantially unchaged in the hippocampus and the amygdala,–
"CC(C)C[C@H](NC(=O)[C@@H]1CCCN1)C(=O)NCC(N)=O [MIF, prolyl-leucyl-glycinamide] (H-Pro-Leu-Gly-NH2)",–,active in a number of animal models for depression
